The subject of data set [1] is Human breast cancer cells T47D. Kind of data set: In vitro antitumor activity test (MTT), T47D. The data set is classed as cell-based. Conditions: 4 days culture with drug, growth inhibition, read-out: IC50 (μmol/L) T47D. How it is done: (§1) In Vitro Antitumor Activity Test
(§2) Cells were taken out carefully from liquid nitrogen (Frozen pipes), and the cell freezing medium was thawed rapidly in water bath at 37° C. in order to rapidly pass the temperature range of 0˜5° C. within which the cell is easily damaged. Cell suspension was sucked with pipette gun and put it into centrifuge tubes under a sterile condition, then centrifuged for 3 min at 1300 r/min. The supernatant was gently discarded, and then added with a fresh medium to pipette and mix the cells. Finally, the cells were transferred into culture flasks and cultured in a carbon dioxide incubator. The medium was changed once after 24 h.
(§3) Human prostate cancer cells (DU145, PC-3) were cultured in RPMI1640 medium containing 10% fetal bovine serum inactivated by heating, 100 IU/mL penicillin, 100 μg/mL streptomycin and 1 mmol/L L-glutamine. Human breast cancer cells (T47D, MDA-MB231) were cultured in RPMI1640 medium containing 10% fetal bovine serum inactivated by heating, 5 μg/mL insulin, 100 IU/mL penicillin, 100 μg/mL streptomycin, and 1 mmol/L L-glutamine. Human breast cancer cells (MCF-7) were cultured in DMEM culture medium containing 10% fetal bovine serum inactivated by heating, 5 μg/mL insulin, 100 IU/mL penicillin, 100 μg/mL streptomycin and […] L-glutamine. Mouse Lewis lung carcinoma cells (LL/2) and mouse melanoma cells (B16F0) were cultured in DMEM culture medium containing 10% fetal bovine serum inactivated by heating, 4.5 g/L glucose, 1.5 g/L NaHCO3, 100 IU/mL penicillin, 100 μg/mL streptomycin and 4 mmol/L L-glutamine. All of the above cell lines were incubated in 37° C. incubator with 5% carbon dioxide saturated humidity
(§4) After 2-3 cycles of cell culture and passage after the cell thawing, the cells were stable and ready for the experiment. The flask bottom should be covered with cells in each cell passage.
(§5) Trypsin solution (0.25%) was applied to digest the cells off the flask bottom when the flask bottom was covered with cells. The digested cell solution was moved to the centrifuge tubes and culture medium was added to stop the digestion; centrifuged for 3 min at 1300 r/min conditions; gently discarded the supernatant, and then added 5 mL medium, pipetted and mixed the cells; added 10 μL of the cell suspension to the cell count plate to count; adjusted the cell concentration to 2×10^4/mL; added 100 μL cell suspension to all wells of the 96 well plate except A1 well which acts as a blank; and placed the 96 well plate in an incubator to culture 24 h and to make sure the cells growing and attached on the wells.
(§6) First formulated the medicine in 16 mmol/L of DMSO storage solution; then diluted the solution with ethanol to 1.6 mmol/L solution; then further diluted with cell culture medium to 32 μmol/L, 16 μmol/L, 8 μmol/L, 4 μmol/L, 2 μmol/L and 1 μmol/L, and added to 96 well plate; 100 μl drug solution were added to each well, thus the final drug concentrations of cells were 16 μmol/L, 8 μmol/L, 4 μmol/L, 2 μmol/L, 1 μmol/L, and 0.5 μmol/L; 3 parallel wells were set for each concentration and placed the 96 well plate was placed into an incubator to continuously culture for 4 days
(§7) Added to each well of the 96 well plate with 50 μL of MTT (2 mg/mL); discarded the MTT (tetrazolium) solution after 4 h incubation in an incubator, then added 200 μL of DMSO; shaking the 96 well plate in a magnetic shaker for 10 min to make sure that the reaction product of the living cells and the MTT, i.e. formazan, was fully dissolved; measured the absorbance value (OD) in microplate reader at the selected 570 nm wavelength, and recorded results. Using the OD values of the cells that were not added with drugs as control, the cell growth inhibition ratio at each test concentration was calculated by using the following formula. Herein, the cancer cell growth inhibition is expressed as the half of the growth inhibitory concentration (IG50 Value) (i.e., the tested drug concentration resulting in 50% cell growth inhibition). […]

The subject of data set [2] is Human breast cancer cells MDA-MB231. Briefly: In vitro antitumor activity test (MTT), MDA-MB231. The data set is classed as cell-based. Conditions: 4 days culture with drug, growth inhibition, read-out: IC50 (μmol/L) MDA-MB231. How it is done: as §1, §2, §3, §4, §5, §6, §7
The test system of data set [3] is Human prostate cancer cells PC-3. Kind of data set: In vitro antitumor activity test (MTT), PC-3. Type of data set: cell-based. Conditions: 96 h, PC-3 cells, 4 days culture with drug, growth inhibition, read-out: IC50 (μmol/L) PC-3. The method, then: as §1
as §2, with “h. […]” for “h.”
(§8) After 2-3 cycles of cell culture and passage after the cell thawing, the cells were stable and ready for the experiment. […]
(§9) Added to each well of the 96 well plate with 50 μL of MTT (2 mg/mL); discarded the MTT (tetrazolium) solution after 4 h incubation in an incubator, then added 200 μL of DMSO; shaking the 96 well plate in a magnetic shaker for 10 min to make sure that the reaction product of the living cells and the MTT, i.e. formazan, was fully dissolved; measured the absorbance value (OD) in microplate reader at the selected 570 nm wavelength, and recorded results. […]

In data set [4] the test system is Mouse Lewis lung carcinoma cells (LL/2). Kind of data set: In vitro antitumor activity test (MTT), LL/2. The data set is classed as cell-based. Conditions: 96 h, LL/2 cells, 4 days culture with drug, growth inhibition, read-out: IC50 (μmol/L) LL/2. How it is done: as §1
as §2, with “h. […]” for “h.”
as §8, §9

Data set [5] relates to Human prostate cancer cells DU145. Briefly: In vitro antitumor activity test (MTT), DU145. The data set is classed as cell-based. The following applies: DU-145, 96 h, 4 days culture with drug, growth inhibition, read-out: IC50 (μmol/L) DU145. The method, then: as §1
as §2, with “h. […]” for “h.”
as §8, §9

A further data set is described as follows: Acute toxicity test. Conditions: both sexes, mouse, in vivo, ip; Kunming mice, intraperitoneal injection, observed one week after administration, weighted regression method. How it is done: Animals: healthy Kunming mice, half male and half female, weighed 18-22 g. Animals were provided from Experimental Animal Center of Shenyang Pharmaceutical University. Certificate of Conformity: Real co-Zi Liao No. 033
Name of tested drugs: Example 13, Example 14
Drug preparation: Suspension formulated with 0.2% polysorbate 80 (Tween-80). Dosage to subject is expressed as mg/kg.
Route of administration: Intraperitoneal injection; injection volume was 0.1 ml/10 g, with one time multi-dose administration.
Test cycle and measurement: Observed one week after the administration; recorded toxic reactions in mice daily during observation, with the death of mice as the main indicator. Half lethal dose (LD50, mg/kg) of the administration of compound after a week can be obtained according to weighted regression method.

Data set [6] deals with Human breast cancer cells MCF-7. Briefly: In vitro antitumor activity test (MTT), MCF-7. Type of data set: cell-based. The following applies: MCF7, 96 h, MCF-7 cells, 4 days culture with drug, growth inhibition, read-out: IC50 (μmol/L) MCF-7. The method, then: as §1
as §2, with “h. […]” for “h.”
as §8, §9

The test system of data set [7] is mouse melanoma cells (B16F0). Kind of data set: In vitro antitumor activity test (MTT), B16F0. The data set is classed as cell-based. Conditions: B16F0, 96 h, B16FD cells (head), 4 days culture with drug, growth inhibition, read-out: IC50 (μmol/L) B16FD. How it is done: as §1
as §2, with “h. […]” for “h.”
as §8, §9

Where two headings read alike, the source gives them in different places. Bounds are passed on as bounds.

For `C=C1CCC(=Cc2ccc(OC)cc2)C1=O` [Example 2, 2-methylene-5-(4-methoxybenzylidene)-cyclopentanone], the IC50 in data set [1] (Homo sapiens, 96 h) was above 16 µmol/L; in data set [2] (Homo sapiens, MDA-MB-231, 96 h), above 16 µmol/L.
On to `C=C1CCC(=Cc2ccccc2OC)C1=O` [Example 7, 2-methylene-5-(2-methoxybenzylidene)cyclopentanone], for which the IC50 in data set [1] (Homo sapiens, 96 h) is 3.93 µmol/L; in data set [2] (Homo sapiens, MDA-MB-231, 96 h) it was 11.6 µmol/L.
With `C=C1CCC(=Cc2ccc(OCC)cc2)C1=O` [Example 8, 2-methylene-5-(4-ethoxybenzylidene)cyclopentanone], the IC50 in data set [1] (Homo sapiens, 96 h) came to 6.37 µmol/L; in data set [2] (Homo sapiens, MDA-MB-231, 96 h) it was 4.57 µmol/L.
`C=C1CCC(=Cc2ccc(OCCC)cc2)C1=O` [Example 9, 2-methylene-5-(4-propoxybenzylidene)cyclopentanone]: the IC50 was above 16 µmol/L in data set [1] (Homo sapiens, 96 h) and above 16 µmol/L in data set [2] (Homo sapiens, MDA-MB-231, 96 h).
With `C=C1CCC(=Cc2ccc(S(C)(=O)=O)cc2)C1=O` [Example 10, 2-methylene-5-(4-methanesulfonylbenzylidene)cyclopentanone], the IC50 in data set [1] (Homo sapiens, 96 h) amounted to 1.64 µmol/L; in data set [2] (Homo sapiens, MDA-MB-231, 96 h), 4.96 µmol/L.
`C=C1CCC(=Cc2ccc(N(C)C)cc2)C1=O` [Example 11, 2-methylene-5-(4-N,N-dimethylbenzylidene)cyclopentanone]: the results for the IC50 in data set [1] and in data set [2] were 1.4 µmol/L and 8.58 µmol/L, respectively.
On to `C=C1CCC(=Cc2ccc(OC)cc2O)C1=O` [Example 12, 2-methylene-5-(2-hydroxy-4-methoxybenzylidene)cyclopentanone], for which the IC50 turned out to be 1.29 µmol/L in data set [1] (Homo sapiens, 96 h) and 4.68 µmol/L in data set [2] (Homo sapiens, MDA-MB-231, 96 h).
A word on the LD50: it is the dose at which mortality reaches 50%. Lower therefore signals greater toxicity. Regarding `C=C1CCC(=Cc2ccc(OC)c(O)c2)C1=O` [Example 13, 2-methylene-5-(3-hydroxy-4-methoxybenzylidene)cyclopentanone], the IC50 in data set [3] turned out to be 2.01 µmol/L; in data set [4], 5.09 µmol/L; in data set [5] it was 2.95 µmol/L; in data set [6] it was 1.21 µmol/L; in data set [7], 3.42 µmol/L; in data set [1] (Homo sapiens, 96 h), 0.64 µmol/L. For the same molecule, in data set [2] (Homo sapiens, MDA-MB-231, 96 h), the IC50 stood at 2.53 µmol/L. This molecule had an LD50 at 1 week in “Acute toxicity test” of 22.4 mg/kg.
For the molecule `C=C1CCC(=Cc2ccc(O)c(OC)c2)C1=O` [Example 14, 2-methylene-5-(4-hydroxy-3-methoxybenzylidene)cyclopentanone], the IC50 in data set [3] came out at 1.76 µmol/L; in data set [4], 6.39 µmol/L; in data set [5], 2.43 µmol/L; in data set [6], 1.05 µmol/L; in data set [7], 4.4 µmol/L; in data set [1] (Homo sapiens, 96 h) it was 0.98 µmol/L. Moreover, the IC50 in data set [2] (Homo sapiens, MDA-MB-231, 96 h) was found to be 3.21 µmol/L. The LD50 at 1 week in “Acute toxicity test” came to 35.2 mg/kg.
Consider `C=C1CCC(=Cc2cccc(OC)c2OC)C1=O` [Example 15, 2-methylene-5-(2,3-dimethoxybenzylidene)cyclopentanone], for which the IC50 is above 16 µmol/L in data set [1] (Homo sapiens, 96 h) and above 16 µmol/L in data set [2] (Homo sapiens, MDA-MB-231, 96 h).
With `C=C1CCC(=Cc2ccc(OC)cc2OC)C1=O` [Example 16, 2-methylene-5-(2,4-dimethoxybenzylidene)cyclopentanone], the IC50 in data set [1] (Homo sapiens, 96 h) is above 16 µmol/L; in data set [2] (Homo sapiens, MDA-MB-231, 96 h), 7.51 µmol/L.
The matching figures for `C=C1CCC(=Cc2ccc(OC)c(OC)c2)C1=O` [Example 17, 2-methylene-5-(3,4-dimethoxybenzylidene)cyclopentanone]: 2.66 µmol/L and 2.57 µmol/L.
In the same order, the values of `C=C1CCC(=Cc2ccc3c(c2)OCO3)C1=O` [Example 18, 2-methylene-5-(3,4-methylenedioxybenzylidene)cyclopentanone] are 4.89 µmol/L and 6.68 µmol/L.
The matching figures for `C=C1CCC(=Cc2cc(OC)c(O)c(OC)c2)C1=O` [Example 19, 2-methylene-5-(3,5-dimethoxy-4-hydroxybenzylidene) cyclopentanone]: 2.82 µmol/L and 3.44 µmol/L.
On to `C=C1CCC(=Cc2cc(C(C)(C)C)c(O)c(C(C)(C)C)c2)C1=O` [Example 20, 2-methylene-5-[3,5-di(t-butyl)-4-hydroxybenzylidene]-cyclopentanone], for which the IC50 in data set [1] (Homo sapiens, 96 h) is 5.31 µmol/L; in data set [2] (Homo sapiens, MDA-MB-231, 96 h) it was 14.8 µmol/L.
The matching figures for `C=C1CCC(=Cc2cc(OC)c(OC)c(OC)c2)C1=O` [Example 21, 2-methylene-5-(3,4,5-trimethoxybenzylidene)cyclopentanone]: 2.76 µmol/L and 7.84 µmol/L.
The matching figures for `C=C1CCC(=CCC(C)C)C1=O` [Example 22, 2-methylene-5-(3-methylbutylidene)cyclopentanone]: above 16 µmol/L and above 16 µmol/L.
In the case of `C=C1CCC(=Cc2ccc(O)cc2)C1=O` [Example 23, 2-methylene-5-(4-hydroxybenzylidene)cyclopentanone], the IC50 was above 16 µmol/L in data set [1] (Homo sapiens, 96 h) and 5.96 µmol/L in data set [2] (Homo sapiens, MDA-MB-231, 96 h).
In the same order, the values of `C=C1CCC(=Cc2ccccc2O)C1=O` [Example 24, 2-methylene-5-(2-hydroxybenzylidene)cyclopentanone] are 5.02 µmol/L and 5.54 µmol/L.
In the same order, the values of `C=C1CCC(=C(c2ccccc2)c2ccccc2)C1=O` [Example 25, 2-methylene-5-diphenylmethylenecyclopentanone] are 7.23 µmol/L and above 16 µmol/L.
As to `C=C1CCC(=C(c2ccc(C)cc2)c2ccc(C)cc2)C1=O` [Example 26, 2-methylene-5-[bis(4-methylphenyl)-methylene]cyclopentanone], the IC50 in data set [1] (Homo sapiens, 96 h) stood at 4.36 µmol/L; in data set [2] (Homo sapiens, MDA-MB-231, 96 h) it was 7.49 µmol/L.
For the molecule `C=C1CCC(=C(c2ccc(F)cc2)c2ccc(F)cc2)C1=O` [Example 27, 2-methene-5-[bis(4-fluorophenyl)-methylene]cyclopentanone], in data set [2], the IC50 is above 16 µmol/L.

For the origin of these results see patent publication US8415505B2, “2-methylene-5-substituted-methylenecyclopentanone derivatives and use thereof” (Shenyang Pharmaceutical University, priority 2008, dated 2013).
